Results reported in patent US20250346613A1, “BORIC ACID PROTEASOME INHIBITOR AND USE THEREOF” (ARTIVILA BIOPHARMA, priority 2022, published 2025).

Legend:
[1] = Blood concentration measurement of orally-administrated mice; format: in vivo, C57BL/6JNifdc mice; conditions: C57BL/6JNifdc, mouse, plasma, oral, 30 mg/kg
Description: The C57BL/6JNifdc mice used in this experiment were provided by Zhejiang Vital River Laboratory Animal Technology Co., Ltd. The compounds were dissolved in DMSO/Solutol/Saline (v/v/v=10/10/80) as a stock solution (3 mg/mL). The stock solution was administrated orally to 6 C57BL/6JNifdc mice at a dose of 30 mg/kg. Blood was collected from the orbital venous plexus at 0.5 h, 1 h, 1.5 h, and 2 h after oral administration.
Approximately 200 μL of blood samples were collected into EDTAK2 Blood Collection tubes and then immediately centrifuged at 10,000 rpm for 5 min. 66 μL of plasma supernatant was added with 198 μL of acetonitrile (Energy), the resulting mixture was shaken on a vortex for 5 min, and then immediately centrifuged at 13000 rpm for 8 min. 200 μL of supernatant was taken for blood compound concentration measurement.
The compound was accurately weighed and dissolved in acetonitrile to a concentration of 100 μg/mL. 50 μL of compound was pipetted and added to 4.95 mL of acetonitrile/water (v/v=3/1) solution to obtain 1000 ng/mL mother liquid. 650 μL of the mother liquid was taken and sequentially diluted with a solution of acetonitrile/water (v/v=3/1) in a 2-fold gradient to obtain standard samples with various concentrations of 500 ng/mL, 250 ng/mL, 125 ng/mL, 62.5 ng/mL, and 31.25 ng/mL.
Standard solutions with concentrations of 1000 ng/mL, 500 ng/mL, 250 ng/mL, 125 ng/mL, 62.5 ng/mL, and 31.25 ng/mL were measured by using LC-MS (LC-MS 2020+LC-2030 Plus, Shimadzu) SIM mode to obtain a calibration curve. The treated blood samples were measured by this method and then subjected to quantitative analysis by using the calibration curve to obtain compound concentration data of each treated blood sample.
The data were exported and the average blood compound concentration at each sampling time was calculated.
Blood compound concentration=compound concentration in treated blood sample×4/molecular weight of the compound. The average blood compound concentration is the average of the compound concentrations in the blood at each sampling time.

[2] = background statement; cannot be used orally; cited from earlier work
[3] = tested on: MM.1S cell strain; assay: Inhibitory activity of cell strain (CellTiter-Glo); format: cell-based; conditions: Homo sapiens, MM1.S, 72 h incubation
Outline: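 Cells seeded at 1×10^5 per well in RPMI1640 complete medium for 24 h, then treated 72 h at 37 °C, 5% CO2 with 3-fold dilutions, final 5×10^−7 M down to 2.29×10^−10 M. CellTiter-Glo luminescence; inhibition calculated against DMSO-only cells and medium-only blanks.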

[4] = target: T1, β5i subunit of the 20S proteasome (Homo sapiens, UniProt P20618+P28062); assay: Proteasome inhibitory activity, β5i subunit (Raji cells treated with compound, lysed, Ac-ANW-AMC substrate); format: cell-based; conditions: proteasome from Raji cells incubated with compound 4 h
T1 construct: The proteasome tested in the present disclosure was derived from Raji cells; endogenous in cells; host or cells: Raji cells
Outline: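 Raji cells were treated for 4 h at 37 °C with compound (from 1 μM, 3-fold, 8 concentrations), then lysed. Lysate activity was read 10 min at 37 °C with Ac-ANW-AMC (β5i) or Suc-LLVY-AMC (β5c) at 345/445 nm. Percent inhibition was relative to DMSO-treated lysate.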

[5] = target: T2, β5c subunit of the 20S proteasome (Homo sapiens, UniProt P20618+P28074); assay: Proteasome inhibitory activity, β5c subunit (Raji cells treated with compound, lysed, Suc-LLVY-AMC substrate); format: cell-based; conditions: proteasome from Raji cells incubated with compound 4 h
T2 construct: The proteasome tested in the present disclosure was derived from Raji cells; endogenous in cells; host or cells: Raji cells
Source text: In the present disclosure, the fluorescent peptide substrate Ac-Ala-Asn-Trp-AMC (abbreviated as Ac-ANW-AMC) and the […] kit containing a fluorescent peptide substrate Suc-Leu-Leu-Val-Tyr-AMC (abbreviated as Suc-LLVY-AMC) (Promega, Item No. G8660) were used to detect the activities of the β5i subunit and β5c subunit of the 20S proteasome, respectively.
The proteasome tested in the present disclosure was derived from Raji cells, the fluorescent substrate Ac-ANW-AMC was purchased from Roche company, and other reagents were purchased from Sigma company. The experimental system was divided into two parts of cell lysis system and enzyme reaction system. […] The starting concentration of the compound (inhibitor) was 1 μM. It was diluted in a 3-fold serial dilution to a total of 8 concentrations, that is, the administration concentration can be 1 μM, 0.333 μM, 0.111 μM . . . , respectively, and the specific experimental process was described below.
Raji cells (1×10^6 cells) cryopreserved in liquid nitrogen were thawed rapidly in a water bath at 37° C. The cell pellet was transferred to a 15 mL centrifuge tube, added with 9 mL of fresh medium (Gibco RPMI1640 added with 10% fetal bovine serum and 1% double antibiotics), centrifuged at 120 g for 5 min, inoculated to 25 mL cell culture flasks, and passaged once every 2-3 days.
The compound was weighed and dissolved in DMSO to a concentration of 10 mM. The compound was then sequentially diluted to concentrations of 200 μM, 66.67 μM, 22.22 μM, 7.41 μM, 2.47 μM, 0.82 μM, 0.27 μM, and 0.091 μM with fresh medium. Raji cells in a good growth status were inoculated into a 48-well cell culture plate at 7×10^5 cells/mL.
Raji cells in a good growth status were taken and counted. They were then inoculated to a 48-well cell culture plate at 7×10^5 cells/mL. Each 5 μL of the various concentrations of diluted compounds above were taken and added to the culture plate inoculated with cells, and the lowest concentration of compound was 0 μM. The drug bortezomib (Velcade) and ONX-0914 were used as the positive control compounds. All cells were incubated at 37° C. for 4 h.
The compound-treated cells were sequentially transferred into 1.5 mL centrifuge tubes, centrifuged at 10000 rpm for 2 min, and the supernatants were removed. The cell pellet was resuspended in 1 mL of PBS, centrifuged at 10000 rpm for 2 min, and the supernatant was removed. Cells were resuspended by adding 100 μL of cell lysate (50 mM Tris of pH 7.5, 150 mM NaCl, 5 mM MgCl2, 5 mM ATP, 1 mM DTT, 0.01% NP-40, 1 mM Digitonin, and Cocktail), placed in an ice bath for 30 min, and centrifuged at 13000 rpm for 10 min.
2 mg of fluorescent peptide substrate AC-ANW-AMC was dissolved in 424.7 μL of DMSO to obtain an 8 mM stock solution, and stored at −20° C. The stock solution was diluted 100-fold to a final concentration of […] for use in the reaction system. The fluorescent peptide substrate Suc-LLVY-AMC was prepared according to the instructions of the Promega kit.
Each 20 μL of the prepared proteasome solution above was added to a 96-well white luciferase microplate and added with 25 μL of AC-ANW-AM substrate buffer solution (50 mM Tris of pH 7.5, 150 mM NaCl, 5 mM MgCl2, 5 mM ATP, 80 uM Ac-ANW-AMC and 1 mM DTT) and 25 μL of Suc-LLVY-AMC substrate buffer solution for 10 min of reaction at 37° C. in the dark. Fluorescence values were read at 345 nm/445 nm by using a fluorence microplate reader.
The data were exported and the inhibition rate in percentage was calculated according to the following formula: Inhibition rate=(maximum signal value-compound signal value)/(maximum signal value−blank signal value)×100%.
Where the maximum signal was obtained from cell lysates treated with DMSO only, and the blank signal was obtained from wells containing only lysates.

| concentration at 0.5 h ([1]; 0.5 h, read-out: Average blood compound concentration (μM) 0.5 h) [µM] | concentration at 1 h ([1]; 1.0 h, read-out: Average blood compound concentration (μM) 1.0 h) [µM] | concentration at 1.5 h ([1]; 1.5 h, read-out: Average blood compound concentration (μM) 1.5 h) [µM] | concentration at 2 h ([1]; 2.0 h, read-out: Average blood compound concentration (μM) 2.0 h) [µM] | IC50 [3] [nM] | IC50 [4] [nM] | IC50 [5] [nM] | SMILES | bioavailability (oral) [2] |
| --- | --- | --- | --- | --- | --- | --- | --- | --- |
| 2 | 1.3 | 1 | 0.9 |  |  |  | CC(C)C[C@H](NC(=O)[C@H](Cc1ccccc1)NC(=O)c1cnccn1)B(O)O [Bortezomib, bortezomib, reference compound] | low bioavailability |
|  |  |  |  | > 500 | ≤ 50 | 50 to 200 | COc1cccc(CNC(=O)C(CC2CCCCC2)C(=O)N[C@@H](Cc2ccc(C)cc2)B(O)O)c1 (stereo partly drawn) [Example 83, ((1R)-1-(2-(cyclohexylmethyl)-3-((3-methoxybenzyl)amino)-3-oxopropionamido)-2-(p-tolyl)ethyl)boric acid] |  |
|  |  |  |  | ≤ 50 | ≤ 50 | ≤ 50 | COc1cccc(CNC(=O)C(CC2CCCCC2)C(=O)N[C@@H](Cc2coc3ccccc23)B(O)O)c1 (stereo partly drawn) [Example 84, ((1R)-2-(benzofuran-3-yl)-1-(2-(cyclohexylmethyl)-3-((3-methoxybenzyl)amino)-3-oxopropionamido)ethyl)boroic acid] |  |
|  |  |  |  | ≤ 50 | ≤ 50 | ≤ 50 | COc1cccc(CNC(=O)C(C(=O)N[C@@H](Cc2ccc(C)cc2)B(O)O)C(C)C)c1 (stereo partly drawn) [Example 87, ((1R)-1-(2-((3-methoxybenzyl)carbamoyl)-3-methylbutanamido)-2-(p-tolyl)ethyl)boric acid] |  |
|  |  |  |  | 50 to 200 | ≤ 50 | 50 to 200 | Cc1ccc(C[C@H](NC(=O)C(C(=O)NCc2ccc(Cl)cc2Cl)C(C)C)B(O)O)cc1 (stereo partly drawn) [Example 88, ((1R)-1-(2-((2,4-dichlorobenzyl)carbamoyl)-3-methylbutanamido)-2-(p-tolyl)ethyl)boric acid] |  |
|  |  |  |  | ≤ 50 | ≤ 50 | ≤ 50 | CC(C)C(C(=O)NCc1ccc(Cl)cc1Cl)C(=O)N[C@@H](Cc1coc2ccccc12)B(O)O (stereo partly drawn) [Example 89, ((1R)-2-(benzofuran-3-yl)-1-(2-((2,4-dichlorobenzyl)carbamoyl)-3-methylbutanamido)ethyl)boric acid] |  |
|  |  |  |  | ≤ 50 | ≤ 50 | ≤ 50 | Cc1ccc(C[C@H](NC(=O)C(Cc2ccccc2)C(=O)NCc2ccc3[nH]ccc3c2)B(O)O)cc1 (stereo partly drawn) [Example 90, ((1R)-1-(3-(((1H-indol-5-yl)methyl)amino)-2-benzyl-3-oxopropionamido)-2-(p-tolyl)ethyl)boric acid] |  |
|  |  |  |  | ≤ 50 | ≤ 50 | 50 to 200 | O=C(NCc1ccc2[nH]ccc2c1)C(Cc1ccccc1)C(=O)N[C@@H](Cc1coc2ccccc12)B(O)O (stereo partly drawn) [Example 91, ((1R)-1-(3-(((1H-indol-5-yl)methyl)amino)-2-benzyl-3-oxopropionamido)-2-(benzofuran-3-yl)ethyl)boric acid] |  |
|  |  |  |  | ≤ 50 | ≤ 50 | ≤ 50 | Cc1ccc(C[C@H](NC(=O)C(C)C(=O)NCc2cccc(C(F)(F)F)c2)B(O)O)cc1 (stereo partly drawn) [Example 92, ((1R)-1-(2-methyl-3-oxo-3-((3-(trifluoromethyl)benzyl)amino)propionamido)-2-(p-tolyl)ethyl)boric acid] |  |
